{"source": "patent US20250241879A1", "about": "“CAPSAICIN SEQUENTIAL DOSING METHOD FOR TREATMENT OF KNEE JOINT PAIN” (priority 2018, published 2025)", "test_system": "human patients with bilateral knee osteoarthritis", "test": "Procedure pain (NPRS) due to intraarticular trans-capsaicin, shortened cooling protocol, Breg pad vs Elasto-Gel wrap (Example 9)", "type": "in vivo", "details": "four patients (Example 9), 1 mg intraarticular", "procedure": "Human patients experiencing osteoarthritic knee joint pain were subjected to two different protocols for intraarticular administration of trans-capsaicin. Temporary pain expected due to administration of capsaicin was analyzed, along with the intraarticular temperature of the knee joint and the temperature of the patient's skin in the area to be cooled.\n(§1) One of the protocols utilized a Breg Knee WrapOn Polar Pad (as illustrated in FIG. 1) that utilizes circulating ice-water to achieve cooling, where the pad is placed on skin surrounding the knee in order to cool the knee joint. The other protocol utilized an Elasto-Gel All Purpose Therapy Wrap measuring 6 inches by 24 inches in size to cool the knee joint. The Elasto-Gel All Purpose Therapy Wrap was removed from a freezer (approximately 0° F.) just prior to use. A temperature probe was placed into the intraarticular space of the patient's knee joint to measure intraarticular temperature of the knee joint. A temperature probe was also placed on the skin in the area to be cooled in order to measure skin temperature in the area to be cooled. […]\nas §1, with “by 24 inches, whereby the wrap is placed around the knee joint in order” for “by 24 inches in size”, “joint in order to cool” for “inches in size to cool”, “knee joint. At the discretion of the physician performing the procedure, in order to reduce discomfort for the patient, the protocol authorized the physician to instill a volume of 1-2 cc of 2% w/w lidocaine (without epinephrine) into the skin and subcutaneous tissue of the knee at the site of intra-articular probe insertion. A temperature” for “knee joint. A temperature”\nPatients receiving cooling of the knee joint using the Elasto-Gel All Purpose Therapy Wrap were subjected to the following procedure: • Placement of intraarticular temperature probe and skin temperature probe. At the discretion of the physician performing the procedure, in order to reduce discomfort for the patient, the protocol authorized the physician to instill a volume of 1-2 cc of 2% w/w lidocaine (without epinephrine) into the skin and subcutaneous tissue of the knee at the site of intra-articular probe insertion. • Cooling using the designated technique was performed for 30 minutes (+/−2 minutes). • Cooling apparatus was removed from the patient's knee. • Intraarticular injection of lidocaine 2% w/w (without epinephrine) 15 mL solution into the patient's knee joint. • Intraarticular injection of the investigational medicinal product (IMP) was performed to deliver trans-capsaicin in the amount of 1 mg. The trans-capsaicin was injected, using the same needle as the lidocaine 2% w/w (without epinephrine), 3 minutes after the intra-articular injection of lidocaine 2% w/w (without epinephrine). The IMP was provided as a pre-filled syringe containing 2 mL of fluid containing trans-capsaicin at a concentration of 0.5 mg/mL. • Knee joint was flexed and extended five times over 1 minute to ensure appropriate distribution of IMP. • The temperature probe was removed approximately 30 minutes after removal of the cooling apparatus.\nPain due to injection of trans-capsaicin was assessed on a Numerical Pain Rating scale (0-10) for 75 minutes after injection of trans-capsaicin. A verbal NPRS was used to assess procedure pain during the study. […]", "data": [{"smiles": "COc1cc(CNC(=O)CCCCC=CC(C)C)ccc1O", "note": "[trans-capsaicin, N-[(4-hydroxy-3-methoxyphenyl)methyl]-8-methylnon-6-enamide]", "values": [{"measurement": "Knee Pain (NPRS)", "setting": "Ice-Gel Pack (Elasto-Gel wrap), 30 min", "result": "0.0 (+/−0.0)"}, {"measurement": "Knee Pain (NPRS)", "setting": "Ice-Gel Pack (Elasto-Gel wrap), 40 min", "result": "0.0 (+/−0.0)"}, {"measurement": "Knee Pain (NPRS)", "setting": "Ice-Gel Pack (Elasto-Gel wrap), 50 min", "result": "1.5 (+/−2.4)"}, {"measurement": "Knee Pain (NPRS)", "setting": "Ice-Gel Pack (Elasto-Gel wrap), 60 min", "result": "2.8 (+/−3.1)"}, {"measurement": "Knee Pain (NPRS)", "setting": "Ice-Gel Pack (Elasto-Gel wrap), 70 min", "result": "1.0 (+/−0.8)"}, {"measurement": "Knee Pain (NPRS)", "setting": "Ice-Gel Pack (Elasto-Gel wrap), 80 min", "result": "1.8 (+/−2.9)"}, {"measurement": "Knee Pain (NPRS)", "setting": "Ice-Gel Pack (Elasto-Gel wrap), 90 min", "result": "2.5 (+/−2.9)"}, {"measurement": "Knee Pain (NPRS)", "setting": "Ice-Gel Pack (Elasto-Gel wrap), 100 min", "result": "1.8 (+/−2.9)"}, {"measurement": "Knee Pain (NPRS)", "setting": "Ice-Gel Pack (Elasto-Gel wrap), 110 min", "result": "0.8 (+/−1.5)"}, {"measurement": "Knee Pain (NPRS)", "setting": "Ice-Gel Pack (Elasto-Gel wrap), Baseline", "result": "0.3 (+/−0.5)"}, {"measurement": "Knee Pain (NPRS)", "setting": "Standard Cooling Device (Breg pad), 30 min", "result": "0.0 (+/−0.0)"}, {"measurement": "Knee Pain (NPRS)", "setting": "Standard Cooling Device (Breg pad), 40 min", "result": "0.5 (+/−1.0)"}, {"measurement": "Knee Pain (NPRS)", "setting": "Standard Cooling Device (Breg pad), 50 min", "result": "3.8 (+/−2.9)"}, {"measurement": "Knee Pain (NPRS)", "setting": "Standard Cooling Device (Breg pad), 60 min", "result": "1.8 (+/−2.4)"}, {"measurement": "Knee Pain (NPRS)", "setting": "Standard Cooling Device (Breg pad), 70 min", "result": "1.0 (+/−2.0)"}, {"measurement": "Knee Pain (NPRS)", "setting": "Standard Cooling Device (Breg pad), 80 min", "result": "2.0 (+/−4.0)"}, {"measurement": "Knee Pain (NPRS)", "setting": "Standard Cooling Device (Breg pad), 90 min", "result": "1.5 (+/−2.4)"}, {"measurement": "Knee Pain (NPRS)", "setting": "Standard Cooling Device (Breg pad), 100 min", "result": "0.5 (+/−1.0)"}, {"measurement": "Knee Pain (NPRS)", "setting": "Standard Cooling Device (Breg pad), 110 min", "result": "2.0 (+/−4.0)"}, {"measurement": "Knee Pain (NPRS)", "setting": "Standard Cooling Device (Breg pad), Baseline", "result": "0.0 (+/−0.0)"}]}]}
